Earlier results, collected in US20260373135A1, “Methods of Treatment with Tradipitant” (Vanda Pharmaceuticals Inc., priority 2022, published 2026).

Key:
[1] = molecular target: T1, CYP3A4 (Homo sapiens, UniProt P08684); settings: breast cancer patients; n=16 *22, n=116 wt; cited from earlier work
[2] = molecular target: T1, CYP3A4; settings: renal transplant patients; cited from earlier work
[3] = molecular target: T1, CYP3A4; settings: human liver microsomes in vitro; cited from earlier work

T1 sequence (P08684 whole entry): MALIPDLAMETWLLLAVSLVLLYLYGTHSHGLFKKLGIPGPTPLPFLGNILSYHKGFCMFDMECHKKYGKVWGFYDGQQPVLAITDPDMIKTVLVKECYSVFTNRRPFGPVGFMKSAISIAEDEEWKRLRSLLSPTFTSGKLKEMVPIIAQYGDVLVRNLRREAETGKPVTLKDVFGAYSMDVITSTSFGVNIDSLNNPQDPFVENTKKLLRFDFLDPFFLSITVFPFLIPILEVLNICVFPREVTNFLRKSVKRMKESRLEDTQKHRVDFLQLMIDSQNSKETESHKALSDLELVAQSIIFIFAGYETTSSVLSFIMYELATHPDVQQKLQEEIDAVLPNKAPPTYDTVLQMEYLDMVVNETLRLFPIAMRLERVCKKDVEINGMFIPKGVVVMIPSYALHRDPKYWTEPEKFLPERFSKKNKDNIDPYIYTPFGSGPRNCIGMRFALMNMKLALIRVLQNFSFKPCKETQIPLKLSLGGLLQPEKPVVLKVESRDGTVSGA

Structure (SMILES): CC/C(=C(\c1ccc(O)cc1)c1ccc(OCCNC)cc1)c1ccccc1 [Endoxifen]
- blood concentrations in CYP3A4*22 carriers vs *1/*1 [1]: increased

Structure (SMILES): CO[C@H]1C[C@@H]2CC[C@@H](C)[C@@](O)(O2)C(=O)C(=O)N2CCCC[C@H]2C(=O)O[C@H]([C@H](C)C[C@@H]2CC[C@@H](OCCO)[C@H](OC)C2)CC(=O)[C@H](C)/C=C(\C)[C@@H](O)[C@@H](OC)C(=O)[C@H](C)C[C@H](C)/C=C/C=C/C=C/1C [everolimus]
- clearance in CYP3A4*22 carriers [2]: lower clearance

Structure (SMILES): CO[C@H]1C[C@@H]2CC[C@@H](C)[C@@](O)(O2)C(=O)C(=O)N2CCCC[C@H]2C(=O)O[C@H]([C@H](C)C[C@@H]2CC[C@@H](O)[C@H](OC)C2)CC(=O)[C@H](C)/C=C(\C)[C@@H](O)[C@@H](OC)C(=O)[C@H](C)C[C@H](C)/C=C/C=C/C=C/1C [sirolimus]
- metabolic rate with CYP3A4*22 [3]: lower

Structure (SMILES): C=CC[C@@H]1/C=C(\C)C[C@H](C)C[C@H](OC)[C@H]2O[C@@](O)(C(=O)C(=O)N3CCCC[C@H]3C(=O)O[C@H](/C(C)=C/[C@@H]3CC[C@@H](O)[C@H](OC)C3)[C@H](C)[C@@H](O)CC1=O)[C@H](C)C[C@@H]2OC [tacrolimus]
- clearance in CYP3A4*22 carriers [2]: reduced
